Source: PMC9934367, “Functional impact of subunit composition and compensation on Drosophila melanogaster nicotinic receptors–targets of neonicotinoids” (PLOS Genetics, 2023)

System: D. melanogaster nAChRs
Test: Comparison of agonist activity between nAChRs expressed in X. laevis oocytes (one-way ANOVA, Kruskal-Wallis)
Format: cell-based
Outline: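 D. melanogaster nAChR subunits and co-factors expressed in X. laevis oocytes by cRNA injection, recorded after 3–4 days by two-electrode voltage clamp at −100 mV in saline with 0.5 μM atropine. Peak currents fitted to a Hill equation for EC50; pEC50 differences tested by one-way ANOVA or Kruskal-Wallis.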

[1] = Dα1/Dα2/Dα3/Dβ1/Dβ2 vs. Dα1/Dα2/Dα4/Dβ1/Dβ2
[2] = Dα1/Dα2/Dα3/Dβ1/Dβ2 vs. Dα1/Dα2/Dβ1/Dβ2/Dβ3
[3] = Dα1/Dα2/Dα3/Dβ1/Dβ2 vs. Dα1/Dα3/Dα4/Dβ1/Dβ2
[4] = Dα1/Dα2/Dα3/Dβ1/Dβ2 vs. Dα1/Dα3/Dβ1/Dβ2/Dβ3
[5] = Dα1/Dα2/Dα3/Dβ1/Dβ2 vs. Dα2/Dα3/Dα4/Dβ1/Dβ2
[6] = Dα1/Dα2/Dα3/Dβ1/Dβ2 vs. Dα2/Dα3/Dβ1/Dβ2/Dβ3
[7] = Dα1/Dα2/Dα3/Dβ1 vs. Dα1/Dα2/Dα3/Dβ1/Dβ2
[8] = Dα1/Dα2/Dα3/Dβ1 vs. Dα1/Dα2/Dβ1/Dβ2
[9] = Dα1/Dα2/Dα3/Dβ1 vs. Dα1/Dα3/Dβ1/Dβ2
[10] = Dα1/Dα2/Dα3/Dβ1 vs. Dα1/Dβ1/Dβ2
[11] = Dα1/Dα2/Dα3/Dβ1 vs. Dα2/Dα3/Dβ1/Dβ2
[12] = Dα1/Dα2/Dα3/Dβ1 vs. Dα3/Dβ1/Dβ2
[13] = Dα1/Dα2/Dβ1/Dβ2 vs. Dα1/Dα2/Dα3/Dβ1/Dβ2
[14] = Dα1/Dα2/Dβ1/Dβ2 vs. Dα2/Dα3/Dβ1/Dβ2
[15] = Dα1/Dα2/Dβ1 vs. Dα1/Dα2/Dα3/Dβ1
[16] = Dα1/Dα2/Dβ1 vs. Dα1/Dα2/Dα3/Dβ1/Dβ2
[17] = Dα1/Dα2/Dβ1 vs. Dα1/Dα2/Dβ1/Dβ2
[18] = Dα1/Dα2/Dβ1 vs. Dα1/Dα3/Dβ1/Dβ2
[19] = Dα1/Dα2/Dβ1 vs. Dα2/Dα3/Dβ1/Dβ2
[20] = Dα1/Dα3/Dβ1/Dβ2 vs. Dα1/Dα2/Dα3/Dβ1/Dβ2
[21] = Dα1/Dα3/Dβ1/Dβ2 vs. Dα1/Dα2/Dβ1/Dβ2
[22] = Dα1/Dα3/Dβ1/Dβ2 vs. Dα2/Dα3/Dβ1/Dβ2
[23] = Dα1/Dα3/Dβ1 vs. Dα1/Dα2/Dα3/Dβ1
[24] = Dα1/Dα3/Dβ1 vs. Dα1/Dα2/Dα3/Dβ1/Dβ2
[25] = Dα1/Dα3/Dβ1 vs. Dα1/Dα2/Dβ1/Dβ2
[26] = Dα1/Dα3/Dβ1 vs. Dα1/Dα3/Dβ1/Dβ2
[27] = Dα1/Dα3/Dβ1 vs. Dα2/Dα3/Dβ1/Dβ2
[28] = Dα1/Dβ1/Dβ2 vs. Dα1/Dα2/Dα3/Dβ1/Dβ2
[29] = Dα1/Dβ1/Dβ2 vs. Dα1/Dα2/Dβ1/Dβ2

## CN/C(=N\[N+](=O)[O-])NCc1cnc(Cl)s1 [Clothianidin, clothianidin]
[1]
  Difference of Imax values, nAChRs compared: -0.189
  Difference of pEC50 values, nAChRs compared: -0.13
[2]
  Difference of Imax values, nAChRs compared: -0.162
  Difference of pEC50 values, nAChRs compared: 0.92
[3]
  Difference of Imax values, nAChRs compared: 0.388
  Difference of pEC50 values, nAChRs compared: -0.35
[4]
  Difference of Imax values, nAChRs compared: 0.281
  Difference of pEC50 values, nAChRs compared: -1.01
[5]
  Difference of Imax values, nAChRs compared: -0.100
  Difference of pEC50 values, nAChRs compared: -0.52
[6]
  Difference of Imax values, nAChRs compared: 0.117
  Difference of pEC50 values, nAChRs compared: -0.87
[7]
  Difference of Imax values, nAChRs compared: 0.005
  Difference of pEC50 values, nAChRs compared: -0.04
[8]
  Difference of Imax values, nAChRs compared: 0.017
  Difference of pEC50 values, nAChRs compared: 0.24
[9]
  Difference of Imax values, nAChRs compared: 0.133
  Difference of pEC50 values, nAChRs compared: -0.85
[10]
  Difference of Imax values, nAChRs compared: 0.457
  Difference of pEC50 values, nAChRs compared: -0.09
[11]
  Difference of Imax values, nAChRs compared: 0.183
  Difference of pEC50 values, nAChRs compared: -0.74
[12]
  Difference of Imax values, nAChRs compared: 0.325
  Difference of pEC50 values, nAChRs compared: -0.91
[13]
  Difference of Imax values, nAChRs compared: -0.012
  Difference of pEC50 values, nAChRs compared: -0.28
[14]
  Difference of Imax values, nAChRs compared: 0.166
  Difference of pEC50 values, nAChRs compared: -0.98
[15]
  Difference of Imax values, nAChRs compared: -0.118
  Difference of pEC50 values, nAChRs compared: -1.48
[16]
  Difference of Imax values, nAChRs compared: -0.113
  Difference of pEC50 values, nAChRs compared: -1.52
[17]
  Difference of Imax values, nAChRs compared: -0.101
  Difference of pEC50 values, nAChRs compared: -1.24
[18]
  Difference of Imax values, nAChRs compared: 0.015
  Difference of pEC50 values, nAChRs compared: -2.33
Dα1/Dα2/Dβ1 vs. Dα1/Dβ1/Dβ2
  Difference of Imax values, nAChRs compared: 0.339
  Difference of pEC50 values, nAChRs compared: -1.57
Dα1/Dα2/Dβ1 vs. Dα2/Dα3/Dβ1
  Difference of Imax values, nAChRs compared: -0.183
  Difference of pEC50 values, nAChRs compared: -1.74
[19]
  Difference of Imax values, nAChRs compared: 0.065
  Difference of pEC50 values, nAChRs compared: -2.22
Dα1/Dα2/Dβ1 vs. Dα3/Dβ1/Dβ2
  Difference of Imax values, nAChRs compared: 0.207
  Difference of pEC50 values, nAChRs compared: -2.39
[20]
  Difference of Imax values, nAChRs compared: -0.128
  Difference of pEC50 values, nAChRs compared: 0.81
[21]
  Difference of Imax values, nAChRs compared: -0.116
  Difference of pEC50 values, nAChRs compared: 1.09
[22]
  Difference of Imax values, nAChRs compared: 0.050
  Difference of pEC50 values, nAChRs compared: 0.11
[23]
  Difference of Imax values, nAChRs compared: -0.190
  Difference of pEC50 values, nAChRs compared: 0.65
[24]
  Difference of Imax values, nAChRs compared: -0.185
  Difference of pEC50 values, nAChRs compared: 0.61
Dα1/Dα3/Dβ1 vs. Dα1/Dα2/Dβ1
  Difference of Imax values, nAChRs compared: -0.072
  Difference of pEC50 values, nAChRs compared: 2.13
[25]
  Difference of Imax values, nAChRs compared: -0.173
  Difference of pEC50 values, nAChRs compared: 0.89
[26]
  Difference of Imax values, nAChRs compared: -0.057
  Difference of pEC50 values, nAChRs compared: -0.20
Dα1/Dα3/Dβ1 vs. Dα1/Dβ1/Dβ2
  Difference of Imax values, nAChRs compared: 0.267
  Difference of pEC50 values, nAChRs compared: 0.56
Dα1/Dα3/Dβ1 vs. Dα2/Dα3/Dβ1
  Difference of Imax values, nAChRs compared: -0.255
  Difference of pEC50 values, nAChRs compared: 0.39
[27]
  Difference of Imax values, nAChRs compared: -0.007
  Difference of pEC50 values, nAChRs compared: -0.09
Dα1/Dα3/Dβ1 vs. Dα3/Dβ1/Dβ2
  Difference of Imax values, nAChRs compared: 0.135
  Difference of pEC50 values, nAChRs compared: -0.26
[28]
  Difference of Imax values, nAChRs compared: -0.452
  Difference of pEC50 values, nAChRs compared: 0.05
[29]
  Difference of Imax values, nAChRs compared: -0.440
  Difference of pEC50 values, nAChRs compared: 0.33
